Assay results from publication PMC3816717 (Bioorganic & medicinal chemistry, 2011).

Legend:
[1] = molecular target: T1, hCD22 (Homo sapiens, UniProt P20273); experiment: Competition ELISA; format: binding
T1 sequence (P20273 20-326 limits assumed): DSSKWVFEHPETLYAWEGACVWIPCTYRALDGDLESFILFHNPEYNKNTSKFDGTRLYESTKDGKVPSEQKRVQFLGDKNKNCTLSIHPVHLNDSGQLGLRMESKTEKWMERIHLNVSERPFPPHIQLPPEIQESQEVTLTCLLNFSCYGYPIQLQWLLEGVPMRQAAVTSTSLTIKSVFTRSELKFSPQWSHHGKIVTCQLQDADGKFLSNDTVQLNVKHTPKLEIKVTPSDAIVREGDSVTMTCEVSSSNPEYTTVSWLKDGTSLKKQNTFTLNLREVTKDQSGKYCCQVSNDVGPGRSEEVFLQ

[2] = molecular target: mCD22 (Mus musculus, UniProt P35329); experiment: Competition ELISA with biotinylated form of 1, mCD22Fc; format: binding, murine

Work on `O=C(CO)N[C@H]1[C@H]([C@H](O)[C@H](O)CNCc2ccc(-c3ccc(O)cc3)cc2)O[C@@](OCc2ccc(-c3ccccc3)cc2)(C(=O)O)C[C@@H]1O` [Compound 9, (4-Biphenyl)methyl 3,5,9-trideoxy-5-glycolamido-9-(4′-hydroxy-4-biphenyl) methylamino-D-glycero-α-D-galacto-2-nonulopyranosidonic acid] yielded an IC50 [1] of 2240 ± 280 nM.

Molecule `COc1ccc(O[C@@H]2O[C@H](CO[C@]3(C(=O)O)C[C@H](O)[C@@H](NC(=O)CO)[C@H]([C@H](O)[C@H](O)CNCc4ccc(-c5ccc(O)cc5)cc4)O3)[C@H](O)[C@H](O)[C@H]2O)cc1` [Compound 2, 9-(4'-hydroxy-4-biphenyl)methylamino-9-deoxy-Neu5Gcα2-6GalOMP, reference compound] has an IC50 [1] of 3290 ± 330 nM.

For `COc1ccc(O[C@@H]2O[C@H](CO[C@]3(C(=O)O)C[C@H](O)[C@@H](NC(=O)CO)[C@H]([C@H](O)[C@H](O)CNC(=O)Cc4ccc(-c5ccc(O)cc5)cc4)O3)[C@H](O)[C@H](O)[C@H]2O)cc1` [Compound 1, 9-(4'-hydroxy-4-biphenyl)acetamido-9-deoxy-Neu5Gcα2-6GalOMP, reference compound], the IC50 [1] was 3270 ± 620 nM.

With `O=C(Cc1ccc(-c2ccc(F)cc2)cc1)NC[C@@H](O)[C@@H](O)[C@@H]1O[C@@](OCc2ccccc2)(C(=O)O)C[C@H](O)[C@H]1NC(=O)CO` [Compound 7, Benzyl 3,5,9-trideoxy-5-glycolamido-9-(4′-fluoro-4-biphenyl)acetamido-D-glycero-α-D-galacto-2-nonulopyranosidonic acid] the “fold less potent than 5 for CD22” value [2] was 50 fold.

`O=C(Cc1ccc(-c2ccc(O)cc2)cc1)NC[C@@H](O)[C@@H](O)[C@@H]1O[C@@](OCc2ccccc2)(C(=O)O)C[C@H](O)[C@H]1NC(=O)CO` [Compound 5, benzyl 3,5,9-trideoxy-5-glycolamido-9-(4′-hydroxy-4-biphenyl)acetamido-D-glycero-α-D-galacto-2-nonulopyranosidonic acid] showed an IC50 [1] of 240 ± 50 nM.

`O=C(Cc1ccc(-c2ccc(O)cc2)cc1)NC[C@@H](O)[C@@H](O)[C@@H]1O[C@@](OCc2ccc(-c3ccccc3)cc2)(C(=O)O)C[C@H](O)[C@H]1NC(=O)CO` [Compound 6] gave an IC50 [1] of 380 nM.

Molecule `O=C(CO)N[C@H]1[C@H]([C@H](O)[C@H](O)CNCc2ccc(-c3ccc(O)cc3)cc2)O[C@@](OCc2ccccc2)(C(=O)O)C[C@@H]1O` [Compound 8, Benzyl 3,5,9-trideoxy-5-glycolamido-9-(4′-hydroxy-4-biphenyl)methylamino-D-glycero-α-D-galacto-2-nonulopyranosidonic acid] has an IC50 [1] of 2750 ± 1300 nM.
